Laboratory results as given in ChEMBL document CHEMBL4145510, “Discovery of a Keap1-dependent peptide PROTAC to knockdown Tau by ubiquitination-proteasome degradation pathway” (Eur J Med Chem, 2018).
The source made the active and inactive calls. The calls are words filed in the database; no cut-off is given here.

Legend:
[1] = biological target: T1, Kelch-like ECH-associated protein 1/Microtubule-associated protein tau/Cullin-3 (Homo sapiens) (UniProt P10636+Q14145+Q13618); assay: Induction of Keap1/Cul3- mediated EGFP tagged Tau (unknown origin) degradation in human SH-SY5Y cells at 20 uM after 10 hrs by flow cytometry analysis; format: cell-based
T1 sequence (P10636 whole entry, looked up): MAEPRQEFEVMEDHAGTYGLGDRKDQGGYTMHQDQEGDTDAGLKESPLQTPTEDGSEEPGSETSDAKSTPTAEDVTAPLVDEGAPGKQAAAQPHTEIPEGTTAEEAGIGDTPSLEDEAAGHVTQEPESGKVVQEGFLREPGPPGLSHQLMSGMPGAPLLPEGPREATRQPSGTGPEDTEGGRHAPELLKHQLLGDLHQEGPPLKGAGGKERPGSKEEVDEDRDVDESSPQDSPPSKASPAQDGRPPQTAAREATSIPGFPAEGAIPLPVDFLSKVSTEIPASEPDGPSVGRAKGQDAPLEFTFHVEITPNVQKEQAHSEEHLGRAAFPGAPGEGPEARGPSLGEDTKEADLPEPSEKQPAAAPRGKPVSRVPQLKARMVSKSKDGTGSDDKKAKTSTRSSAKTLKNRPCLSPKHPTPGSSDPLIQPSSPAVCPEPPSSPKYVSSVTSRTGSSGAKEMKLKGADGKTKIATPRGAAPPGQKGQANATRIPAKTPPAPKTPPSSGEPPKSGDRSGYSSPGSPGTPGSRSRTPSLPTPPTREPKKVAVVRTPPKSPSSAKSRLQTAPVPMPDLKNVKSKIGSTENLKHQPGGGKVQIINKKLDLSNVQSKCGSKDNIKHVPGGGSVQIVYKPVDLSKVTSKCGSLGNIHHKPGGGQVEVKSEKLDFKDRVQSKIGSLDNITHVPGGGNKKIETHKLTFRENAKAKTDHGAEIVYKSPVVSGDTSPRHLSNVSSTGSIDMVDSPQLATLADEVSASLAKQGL
T1 sequence (Q13618 whole entry, looked up): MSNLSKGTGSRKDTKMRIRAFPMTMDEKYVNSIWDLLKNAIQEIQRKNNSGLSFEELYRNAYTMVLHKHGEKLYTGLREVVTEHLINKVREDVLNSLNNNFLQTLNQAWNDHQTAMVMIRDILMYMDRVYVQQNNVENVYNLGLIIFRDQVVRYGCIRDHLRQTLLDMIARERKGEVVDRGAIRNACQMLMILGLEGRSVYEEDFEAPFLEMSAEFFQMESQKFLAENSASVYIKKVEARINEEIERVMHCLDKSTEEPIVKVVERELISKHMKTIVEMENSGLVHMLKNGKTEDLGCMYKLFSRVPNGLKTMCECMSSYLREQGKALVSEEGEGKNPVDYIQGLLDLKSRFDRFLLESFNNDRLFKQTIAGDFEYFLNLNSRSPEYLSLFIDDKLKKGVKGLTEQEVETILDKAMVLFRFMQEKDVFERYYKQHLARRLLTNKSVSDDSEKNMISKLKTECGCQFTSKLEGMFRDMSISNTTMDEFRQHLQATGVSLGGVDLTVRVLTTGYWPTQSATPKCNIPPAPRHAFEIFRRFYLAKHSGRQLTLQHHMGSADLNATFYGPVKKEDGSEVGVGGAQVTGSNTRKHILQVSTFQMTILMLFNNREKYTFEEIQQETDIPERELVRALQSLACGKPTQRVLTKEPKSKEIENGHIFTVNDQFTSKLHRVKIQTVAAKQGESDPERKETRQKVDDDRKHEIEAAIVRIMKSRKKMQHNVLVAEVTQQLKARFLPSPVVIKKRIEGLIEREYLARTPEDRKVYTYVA
T1 sequence (Q14145 whole entry, looked up): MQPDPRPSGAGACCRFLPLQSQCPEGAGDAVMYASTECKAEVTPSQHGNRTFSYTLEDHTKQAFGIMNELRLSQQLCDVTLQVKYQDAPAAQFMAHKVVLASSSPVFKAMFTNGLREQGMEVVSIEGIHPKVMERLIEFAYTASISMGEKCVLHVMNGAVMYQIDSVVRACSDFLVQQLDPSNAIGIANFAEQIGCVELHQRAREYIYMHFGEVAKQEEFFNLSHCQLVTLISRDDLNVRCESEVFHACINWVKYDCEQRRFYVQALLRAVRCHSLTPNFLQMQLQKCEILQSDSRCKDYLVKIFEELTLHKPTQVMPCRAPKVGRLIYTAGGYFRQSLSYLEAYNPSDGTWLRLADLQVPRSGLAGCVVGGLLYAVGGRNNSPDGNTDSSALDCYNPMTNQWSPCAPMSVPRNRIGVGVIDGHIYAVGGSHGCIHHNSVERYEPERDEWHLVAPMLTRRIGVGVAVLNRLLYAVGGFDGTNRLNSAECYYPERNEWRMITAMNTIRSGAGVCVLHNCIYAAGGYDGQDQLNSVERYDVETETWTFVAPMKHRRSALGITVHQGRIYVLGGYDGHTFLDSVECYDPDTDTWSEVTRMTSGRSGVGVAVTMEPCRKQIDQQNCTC

[2] = biological target: T1, Kelch-like ECH-associated protein 1/Microtubule-associated protein tau/Cullin-3 (Homo sapiens); assay: Induction of Keap1/Cul3- mediated EGFP tagged Tau (unknown origin) degradation in human SH-SY5Y cells at 10 uM incubated for 10 hrs in presence of proteasome inhibitor MG132 by Western blot analysis; format: cell-based
[3] = biological target: T1, Kelch-like ECH-associated protein 1/Microtubule-associated protein tau/Cullin-3 (Homo sapiens); assay: Induction of Keap1/Cul3- mediated EGFP tagged Tau (unknown origin) degradation in human SH-SY5Y cells at 10 uM incubated for 10 hrs in absence of proteasome inhibitor MG132 by Western blot analysis; format: cell-based
[4] = Drug uptake in human SH-SY5Y cells using N-terminal TAMRA labeled compound at 10 uM after 12 hrs by Flow cytometry analysis; format: ADME, cell-based
[5] = Induction of Keap1/Cul3- mediated EGFP tagged Tau (unknown origin) degredation in mouse Neuro2a cells by Western blot analysis; format: cell-based
[6] = biological target: Microtubule-associated protein tau (Homo sapiens, UniProt P10636); assay: Binding affinity to human Tau (1 to 441 residues) by ITC method
Chain of Microtubule-associated protein tau (P10636 whole entry, the tested form may be a part): as the sequence (P10636 whole entry, looked up) above

[7] = biological target: Kelch-like ECH-associated protein 1/Microtubule-associated protein tau (Homo sapiens) (UniProt P10636+Q14145); assay: Binding affinity to Keap1/Tau in human SH-SY5Y cells at 10 to 20 uM by Western blot analysis; format: cell-based
Chain of Kelch-like ECH-associated protein 1/Microtubule-associated protein tau (Homo sapiens) (P10636 whole entry, looked up): as above
Chain of Kelch-like ECH-associated protein 1/Microtubule-associated protein tau (Homo sapiens) (Q14145 whole entry, looked up): as the sequence (Q14145 whole entry, looked up) above

[8] = Drug uptake in human SH-SY5Y cells using N-terminal TAMRA labeled compound at 10 uM after 8 hrs by DAPI staining-based laser scanning confocal microscopic analysis; format: ADME, cell-based
[9] = biological target: Cullin-3/Microtubule-associated protein tau (Homo sapiens) (UniProt P10636+Q13618); assay: Induction of Cul3- mediated EGFP tagged Tau (unknown origin) degradation in human SH-SY5Y cells harboring Keap1 siRNA at 10 uM by Western blot analysis; format: cell-based
Chain of Cullin-3/Microtubule-associated protein tau (Homo sapiens) (P10636 whole entry, looked up): as the sequence (P10636 whole entry, looked up) above
Chain of Cullin-3/Microtubule-associated protein tau (Homo sapiens) (Q13618 whole entry, looked up): as the sequence (Q13618 whole entry, looked up) above

[10] = Induction of Keap1/Cul3- mediated EGFP tagged Tau (unknown origin) degradation in rat PC12 cells by Western blot analysis; format: cell-based
[11] = biological target: Kelch-like ECH-associated protein 1 (Homo sapiens, UniProt Q14145); assay: Binding affinity to human Keap1 (322 to 609 residues) by ITC method
Chain of Kelch-like ECH-associated protein 1 (Q14145 whole entry, the tested form may be a part): as the sequence (Q14145 whole entry, looked up) above

| Activity [1] | Activity [2] | Activity [3] | Activity [9] | Structure (SMILES) | also measured |
| --- | --- | --- | --- | --- | --- |
| Active | – | – | – | CC(=O)N[C@@H](CCCCN)C(=O)N[C@@H](CC(=O)O)C(=O)N[C@@H](Cc1ccc(O)cc1)C(=O)N[C@@H](CCC(=O)O)C(=O)N[C@@H](CCC(=O)O)C(=O)N[C@H](C(=O)NCC(=O)N[C@H](C(=O)N[C@@H](CC(=O)O)C(=O)N[C@@H](CO)C(=O)N[C@H](C(=O)N[C@@H](CCC(=O)O)C(=O)NCC(=O)N[C@@H](CO)C(=O)NCC(=O)N[C@@H](CO)C(=O)N[C@@H](CC(C)C)C(=O)N[C@@H](CC(=O)O)C(=O)N1CCC[C@H]1C(=O)N[C@@H](CCC(=O)O)C(=O)N[C@H](C(=O)NCC(=O)N[C@@H](CCC(=O)O)C(=O)N[C@@H](Cc1ccc(O)cc1)C(=O)N[C@@H](CC(C)C)C(=O)N[C@H](CCCNC(=N)N)C(=O)N[C@H](CCCNC(=N)N)C(=O)N[C@H](CCCNC(=N)N)C(=O)N[C@H](CCCNC(=N)N)C(=O)N[C@H](CCCNC(=N)N)C(=O)N[C@H](CCCNC(=N)N)C(=O)N[C@H](CCCNC(=N)N)C(=O)N[C@H](CCCNC(=N)N)C(=O)O)[C@@H](C)O)C(C)C)C(C)C)C(C)C | – |
| Active | – | – | – | CC(=O)N[C@@H](Cc1ccc(O)cc1)C(=O)N[C@@H](CCC(N)=O)C(=O)N[C@@H](CCC(N)=O)C(=O)N[C@@H](Cc1ccc(O)cc1)C(=O)N[C@@H](CCC(N)=O)C(=O)N[C@@H](CC(=O)O)C(=O)N[C@@H](C)C(=O)N[C@H](C(=O)N[C@@H](C)C(=O)N[C@@H](CC(=O)O)C(=O)N[C@@H](CCC(=O)O)C(=O)N[C@@H](CCC(N)=O)C(=O)NCC(=O)NCC(=O)N[C@@H](CO)C(=O)NCC(=O)N[C@@H](CO)C(=O)N[C@@H](CC(C)C)C(=O)N[C@@H](CC(=O)O)C(=O)N1CCC[C@H]1C(=O)N[C@@H](CCC(=O)O)C(=O)N[C@H](C(=O)NCC(=O)N[C@@H](CCC(=O)O)C(=O)N[C@@H](Cc1ccccc1)C(=O)N[C@@H](CC(C)C)C(=O)N[C@H](CCCNC(=N)N)C(=O)N[C@H](CCCNC(=N)N)C(=O)N[C@H](CCCNC(=N)N)C(=O)N[C@H](CCCNC(=N)N)C(=O)N[C@H](CCCNC(=N)N)C(=O)N[C@H](CCCNC(=N)N)C(=O)N[C@H](CCCNC(=N)N)C(=O)N[C@H](CCCNC(=N)N)C(=O)O)[C@@H](C)O)[C@@H](C)O | – |
| inactive | – | – | – | CC(=O)N[C@@H](Cc1ccc(O)cc1)C(=O)N[C@@H](CCC(N)=O)C(=O)N[C@@H](CCC(N)=O)C(=O)N[C@@H](Cc1ccc(O)cc1)C(=O)N[C@@H](CCC(N)=O)C(=O)N[C@@H](CC(=O)O)C(=O)N[C@@H](C)C(=O)N[C@H](C(=O)N[C@@H](C)C(=O)N[C@@H](CC(=O)O)C(=O)N[C@@H](CCC(=O)O)C(=O)N[C@@H](CCC(N)=O)C(=O)NCC(=O)NCC(=O)NCC(=O)N[C@@H](CO)C(=O)NCC(=O)NCC(=O)N[C@@H](CC(C)C)C(=O)N[C@@H](CC(=O)O)C(=O)N1CCC[C@H]1C(=O)N[C@@H](CCC(=O)O)C(=O)N[C@H](C(=O)NCC(=O)N[C@@H](CCC(=O)O)C(=O)N[C@@H](Cc1ccc(O)cc1)C(=O)N[C@@H](CC(C)C)C(=O)N[C@H](CCCNC(=N)N)C(=O)N[C@H](CCCNC(=N)N)C(=O)N[C@H](CCCNC(=N)N)C(=O)N[C@H](CCCNC(=N)N)C(=O)N[C@H](CCCNC(=N)N)C(=O)N[C@H](CCCNC(=N)N)C(=O)N[C@H](CCCNC(=N)N)C(=O)N[C@H](CCCNC(=N)N)C(=O)O)[C@@H](C)O)[C@@H](C)O | – |
| Active | inactive | Active | inactive | CC(=O)N[C@@H](Cc1ccc(O)cc1)C(=O)N[C@@H](CCC(N)=O)C(=O)N[C@@H](CCC(N)=O)C(=O)N[C@@H](Cc1ccc(O)cc1)C(=O)N[C@@H](CCC(N)=O)C(=O)N[C@@H](CC(=O)O)C(=O)N[C@@H](C)C(=O)N[C@H](C(=O)N[C@@H](C)C(=O)N[C@@H](CC(=O)O)C(=O)N[C@@H](CCC(=O)O)C(=O)N[C@@H](CCC(N)=O)C(=O)NCC(=O)NCC(=O)N[C@@H](CO)C(=O)NCC(=O)N[C@@H](CO)C(=O)N[C@@H](CC(C)C)C(=O)N[C@@H](CC(=O)O)C(=O)N1CCC[C@H]1C(=O)N[C@@H](CCC(=O)O)C(=O)N[C@H](C(=O)NCC(=O)N[C@@H](CCC(=O)O)C(=O)N[C@@H](Cc1ccc(O)cc1)C(=O)N[C@@H](CC(C)C)C(=O)N[C@H](CCCNC(=N)N)C(=O)N[C@H](CCCNC(=N)N)C(=O)N[C@H](CCCNC(=N)N)C(=O)N[C@H](CCCNC(=N)N)C(=O)N[C@H](CCCNC(=N)N)C(=O)N[C@H](CCCNC(=N)N)C(=O)N[C@H](CCCNC(=N)N)C(=O)N[C@H](CCCNC(=N)N)C(=O)O)[C@@H](C)O)[C@@H](C)O | Drug uptake [4]: Active; Activity [5]: Dose-dependent effect; Kd [6]: 763 nM; Activity [7]: Active; Drug uptake [8]: Active; Activity [10]: Dose-dependent effect; Kd [11]: 22.8 nM |
| inactive | inactive | inactive | inactive | CC(=O)N[C@@H](Cc1ccc(O)cc1)C(=O)N[C@@H](CCC(N)=O)C(=O)N[C@@H](CCC(N)=O)C(=O)N[C@@H](Cc1ccc(O)cc1)C(=O)N[C@@H](CCC(N)=O)C(=O)N[C@@H](CC(=O)O)C(=O)N[C@@H](C)C(=O)N[C@H](C(=O)N[C@@H](C)C(=O)N[C@@H](CC(=O)O)C(=O)N[C@@H](CCC(=O)O)C(=O)N[C@@H](CCC(N)=O)C(=O)NCC(=O)NCC(=O)N[C@@H](CO)C(=O)NCC(=O)N[C@@H](CO)C(=O)N[C@@H](CC(C)C)C(=O)N[C@@H](CC(=O)O)C(=O)N1CCC[C@H]1C(=O)N[C@@H](C)C(=O)N[C@H](C(=O)NCC(=O)N[C@@H](CCC(=O)O)C(=O)N[C@@H](Cc1ccc(O)cc1)C(=O)N[C@@H](CC(C)C)C(=O)N[C@H](CCCNC(=N)N)C(=O)N[C@H](CCCNC(=N)N)C(=O)N[C@H](CCCNC(=N)N)C(=O)N[C@H](CCCNC(=N)N)C(=O)N[C@H](CCCNC(=N)N)C(=O)N[C@H](CCCNC(=N)N)C(=O)N[C@H](CCCNC(=N)N)C(=O)N[C@H](CCCNC(=N)N)C(=O)O)[C@@H](C)O)[C@@H](C)O | – |
